Measured values as given in PubChem BioAssay (NCI).
“And” between values parts separate entries of the source, which are not always exact repeats. Equal entries are not always repeated.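 Following 48 hours of exposure in 96-well plates, responses at five concentrations were used to interpolate endpoints linearly. Abbreviation: GI50, concentration required for 50% inhibition of growth. TGI is the concentration that stops growth completely.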

How the values were obtained:
Assay in all cases: NCI anticancer screen, dose series, 48 h
[1] = test system: K-562 leukemia
[2] = test system: MCF7 breast
[3] = test system: COLO 205 colon
[4] = test system: BT-549 breast
[5] = test system: KM12 colon
[6] = test system: OVCAR-3 ovarian
[7] = test system: UACC-257 melanoma
[8] = test system: SW-620 colon
[9] = test system: HCT-15 colon
[10] = test system: OVCAR-4 ovarian
[11] = test system: T-47D breast
[12] = test system: CCRF-CEM leukemia
[13] = test system: OVCAR-5 ovarian
[14] = test system: SF-268 CNS
[15] = test system: HOP-62 NSCLC
[16] = test system: HS 578T breast

SMILES	TGI [1]	TGI [2]	TGI [3]	TGI [4]	TGI [5]	TGI [6]	TGI [7]	TGI [8]	TGI [9]	TGI [10]	TGI [11]	TGI [12]	TGI [13]	TGI [14]	TGI [15]	TGI [16]	GI50 [7]	GI50 [14]
O=C1c2ccccc2C(=O)N1c1ccc(OCCN2CCCCC2)cc1	> 100 µM	> 100 µM	> 100 µM	> 100 µM	> 100 µM	> 100 µM	> 100 µM	> 100 µM	> 100 µM	> 100 µM	> 100 µM	> 100 µM	> 100 µM	> 100 µM	> 100 µM	> 100 µM		
CN1CCN(c2ccc3[nH]c(C4=C(O)c5nc(CO)n(C)c5C(=O)C4=O)nc3n2)CC1	> 100 µM		> 100 µM	> 100 µM	> 100 µM	> 100 µM	> 100 µM	> 100 µM	> 100 µM	> 100 µM	> 100 µM	> 100 µM	> 100 µM	> 100 µM	> 100 µM	> 100 µM		
CCC(=O)NCCc1c[nH]c2ccc(OC)cc12	> 100 µM	> 100 µM	> 100 µM	> 100 µM	> 100 µM	> 100 µM	> 100 µM	> 100 µM	> 100 µM	> 100 µM	> 100 µM	> 100 µM	> 100 µM	> 100 µM	> 100 µM	> 100 µM		
Fc1ccc(C(OCCN2CCC3CCC(C2)N3Cc2cc3ccccc3[nH]2)c2ccc(F)cc2)cc1 (stereo unspecified)		3.57 µM	2.14 µM	5.08 µM	3.72 µM	3.39 µM	3.53 µM	3.78 µM	2.38 µM	5.68 µM	3.18 µM	4.69 µM	4.18 µM	4.12 µM	4.54 µM	4 µM		
CCCCCCCSCC(O)COC(c1ccccc1)(c1ccccc1)c1ccccc1 (stereo unspecified)	> 100 µM	> 100 µM	> 100 µM	> 100 µM	16.9 µM	> 100 µM	> 100 µM	> 100 µM	> 100 µM	> 100 µM	> 100 µM	> 100 µM	> 100 µM	66.8 µM	> 100 µM	50.1 µM		
CC1(C)CCc2c(c(N=Nc3ccccc3)c3ccccc3c2O)O1	> 100 µM	47 µM	> 100 µM	> 100 µM	> 100 µM	53.1 µM	39.8 µM	> 100 µM	> 100 µM	> 100 µM	> 100 µM	> 100 µM	> 100 µM	> 100 µM	> 100 µM	> 100 µM		
CC(=O)c1cccc(NC2C(N)C(NC(=O)N(C)C)(C(C)O)C(C)(O)C2(O)COC(=O)c2c(C)cccc2O)c1 (stereo unspecified)	0.15 µM	1.13 µM		0.012 µM	0.213 µM and 0.164 µM	0.262 µM		1.75 µM	1.01 µM		0.00834 µM	0.205 µM	0.0457 µM and 0.186 µM		0.0786 µM	0.0122 µM	31.4 nM	< 1 nM
C[C@@H]1OC(=O)C[C@H]2CC(=O)N(CCc3cn(S(=O)(=O)C(F)(F)F)c4ccccc34)C[C@@H]21	> 100 µM	> 100 µM	> 100 µM	> 100 µM	> 100 µM	> 100 µM	> 100 µM	> 100 µM	> 100 µM	> 100 µM	> 100 µM	> 100 µM	> 100 µM	> 100 µM	> 100 µM	> 100 µM		
CSc1c(C#N)c2n(c3ccccc3[n+]2C)c2ncccc12	> 100 µM	42.8 µM	54.2 µM	70.5 µM	> 100 µM	71.7 µM		> 100 µM	> 100 µM	91.1 µM	80 µM	> 100 µM	84.6 µM	86.9 µM	> 100 µM	> 100 µM		
Cc1[nH]c2ccccc2c1C=Nc1ccc(Oc2ccccc2)cc1	58.1 µM	39.7 µM	30.1 µM	35.5 µM	31.4 µM	27.6 µM	31.8 µM	42.6 µM	35 µM	34.6 µM	40.5 µM	28.9 µM	30 µM	34.1 µM		52 µM		
O=C1OC(CN2CCN(c3ccccc3)CC2)CN1C(=S)Nc1ccccc1 (stereo unspecified)	> 100 µM	> 100 µM	> 100 µM	> 100 µM	> 100 µM	> 100 µM	> 100 µM	> 100 µM	> 100 µM	> 100 µM	> 100 µM	> 100 µM	> 100 µM	> 100 µM	> 100 µM	> 100 µM		
O=C(/C=C/c1ccc(O)c(O)c1)OCCOC(=O)/C=C/c1ccc(O)c(O)c1	63.2 µM	90.9 µM	42.3 µM	> 100 µM	41.8 µM	39 µM	44.5 µM	> 100 µM	> 100 µM	> 100 µM	51.2 µM	> 100 µM	65.8 µM	> 100 µM	47.4 µM	> 100 µM		
O=[N+]([O-])C1(C2([N+](=O)[O-])CCCC2)CCCC1	> 100 µM	> 100 µM	> 100 µM	> 100 µM	> 100 µM	> 100 µM	> 100 µM	> 100 µM	> 100 µM	> 100 µM	> 100 µM	> 100 µM	> 100 µM	> 100 µM		> 100 µM		
CCCc1c2c3ccccc3nc-2nc2ccccn12	> 100 µM		> 100 µM	> 100 µM	> 100 µM	> 100 µM	> 100 µM	> 100 µM	> 100 µM	> 100 µM	> 100 µM	> 100 µM	88.1 µM	70.4 µM	90.7 µM	> 100 µM		
